Measurements: patent publication US20180228799A1, “Treatment for Neurological and Mental Disorders” (PSYCHOGENICS, INC., priority 2008, published 2018)
“Also recorded” adds a separate entry of the source.

Tests used:
Male Wistar rats = assay: Novel Object Recognition Test (NOR); assay type: in vivo; details: 0.3, 1, 3, and 10 mg/kg, 1 h prior to training, 24 hours post training, FIG. 3
Excerpt: In addition to working memory deficits, the initiative, “Measurement and Treatment Research to Improve Cognition in Schizophrenia” (MATRICS) has identified other domains of learning and memory in which schizophrenia patients show impaired visual learning and memory. There are several visual learning and memory tasks appropriate for study in rodents (Powell, S. B. and M. A. Geyer, Overview of animal models of schizophrenia. Curr Protoc Neurosci, 2007. Chapter 9: p. Unit 9 24). […]
Male Wistar rats were assessed for cognitive ability in a test apparatus comprising an open-field arena placed in a sound-attenuated room under dimmed lighting. […] All tests were video scored by an observer blind to treatment. […] Each rat was placed in the arena facing the same direction at the same position, and the time spent actively exploring the objects during a 10-minute test period was recorded. […] After 24 hours, each rat was placed again in the test arena for 10 minutes in the presence of one of the familiar objects and a novel object, and the time spent exploring both objects was recorded. […] The percent time spent exploring the novel object was recorded.

5-HT1 = details: selective with respect to all receptors other than 5-HT1; cited from earlier work
[1] = test system: symptoms of ADHD in adults; assay: Continuous Performance Test (CPT), same trial; assay type: in vivo, human; details: 5 or 10 mg/day, 14 days
Procedure: (§1) This double-blind, multiple-dose, placebo-controlled, crossover study was conducted to assess the effects of 14 days of oral eltoprazine treatment in 48 adults with ADHD. Subjects eligible for study enrollment were to have met Diagnostic and Statistical Manual of Mental Disorders, Fourth Edition, Text Revision (DSM-IV-TR) criteria for ADHD. Assessment was to be made by clinical history, a Structured Clinical Interview for DSM-IV Axis Disorders-Research Version (SCID-RV), and a Conners' Adult ADHD Diagnostic Interview for DSM IV (CAADID).
(§2) Oral doses of eltoprazine hydrochloride were 5 mg/day or 10 mg/day for 14 consecutive days (i.e., 2.5 or 5 mg twice daily (bid), respectively). Eltoprazine hydrochloride was administered in gelatin capsules with calcium hydrogen phosphate, 2H2O, maize starch NF, polyethylene glycol 6000 NF and magnesium stearate NF as excipients.
Secondary endpoints were evaluated with the Clinical Global Impressions-Improvement (CGI-I) and Continuous Performance Test. (CPT). The CGI-I test is used to determine the […] of improvement.

[2] = test system: symptoms of ADHD in adults; assay: ADHD-RS-IV, double-blind placebo-controlled crossover trial in adults with ADHD; assay type: in vivo, human; details: for ADHD-RS-IV Inattention subscale, Baseline Score / ADHD-RS-IV Hyperactivity subscale, Baseline Score / ADHD-RS-IV Impulsivity subscale, Baseline Score / ADHD-RS-IV Total score, Baseline Score: before treatment
Procedure: The primary objective of this study was to compare the effects of two doses of eltoprazine with placebo on symptoms of ADHD in adults. The primary efficacy parameter is the Attention-Deficit/Hyperactivity Disorder Rating Scale-IV (ADHD-RS-IV).
as §1, §2
Primary endpoints were evaluated with the ADHD-RS-IV. After 14 days of treatment with placebo, 5 mg/day, or 10 mg/day eltoprazine, overall symptoms of ADHD were improved as measured by the ADHD-RS-IV, in which higher scores reflect greater impairment.
ADHD-RS-IV, CPT, and CGI-I scores were analyzed separately for those subjects whose baseline score was >40, indicating greater impairment. Twenty-two subjects had baseline ADHD-RS-IV total scores >40.

[3] = 5 mg/day oral, 14 days, all patients N = 38
[4] = 5 mg/day oral, all patients N = 38
[5] = 10 mg/day oral, 14 days, all patients N = 37
[6] = 10 mg/day oral, all patients N = 37
[7] = subjects with baseline score >40 (more severe ADHD), 5 mg/day, 14 days

For `c1cc2c(c(N3CCNCC3)c1)OCCO2` [Eltoprazine, 1-(2,3-dihydro-1,4-benzodioxanyl-5-yl) piperazine], the “Novel object recognition (NOR) memory vs. vehicle-treated controls” value (Male Wistar rats) is given as “significantly improved”, the Binding selectivity (5-HT1) is given as “selective 5-HT1 ligand” and the CPT findings [1] is given as “did not result in any statistically significant findings”. The “ADHD-RS-IV Inattention subscale, Post Treatment Score” value ([2]; 5 mg/day oral (2.5 mg bid), 14 days, all patients N = 38) was 14.5, the “ADHD-RS-IV Inattention subscale, Baseline Score” value ([2]; 5 mg/day oral (2.5 mg bid), all patients N = 38) was 23.8 and the “ADHD-RS-IV Hyperactivity subscale, Change from Baseline” value [2, 3] was −5.9. For the same compound, the “ADHD-RS-IV Hyperactivity subscale, Change from Baseline (percent decrease)” value [2, 3] was 47%, the “ADHD-RS-IV Hyperactivity subscale, Post Treatment Score” value [2, 3] was 6.6 and the “ADHD-RS-IV Impulsivity subscale, Change from Baseline” value [2, 3] was −2.7. For the same compound, the “ADHD-RS-IV Impulsivity subscale, Change from Baseline (percent decrease)” value [2, 3] was 44%, the “ADHD-RS-IV Impulsivity subscale, Post Treatment Score” value [2, 3] was 3.4 and the “ADHD-RS-IV Inattention subscale, Change from Baseline” value [2, 3] was −9.4. The “ADHD-RS-IV Inattention subscale, Change from Baseline (percent decrease)” value [2, 3] was 39%, the “ADHD-RS-IV Total score, Change from Baseline” value [2, 3] was −17.9 and the “ADHD-RS-IV Total score, Change from Baseline (percent decrease)” value [2, 3] was “(42%)”. The “ADHD-RS-IV Total score, Post Treatment Score” value [2, 3] was 24.5, the “ADHD-RS-IV Total score, Change from Baseline (percent decrease)” value ([2]; 5 mg/day oral, 14 days, all patients N = 38, listed as eltoprazine) was 42% and the “ADHD-RS-IV Hyperactivity subscale, Baseline Score” value [2, 4] was 12.5. The “ADHD-RS-IV Impulsivity subscale, Baseline Score” value [2, 4] was 6.1, the “ADHD-RS-IV Total score, Baseline Score” value [2, 4] was 42.4 and the “ADHD-RS-IV Inattention subscale, Post Treatment Score” value ([2]; 10 mg/day oral (5 mg bid), 14 days, all patients N = 37) was 14.8. The “ADHD-RS-IV Inattention subscale, Baseline Score” value ([2]; 10 mg/day oral (5 mg bid), all patients N = 37) was 23.8, the “ADHD-RS-IV Hyperactivity subscale, Change from Baseline” value [2, 5] was −5.5 and the “ADHD-RS-IV Hyperactivity subscale, Change from Baseline (percent decrease)” value [2, 5] was 43%. For the same compound, the “ADHD-RS-IV Hyperactivity subscale, Post Treatment Score” value [2, 5] was 7.2, the “ADHD-RS-IV Impulsivity subscale, Change from Baseline” value [2, 5] was −2.9 and the “ADHD-RS-IV Impulsivity subscale, Change from Baseline (percent decrease)” value [2, 5] was 47%. For the same compound, the “ADHD-RS-IV Impulsivity subscale, Post Treatment Score” value [2, 5] was 3.2, the “ADHD-RS-IV Inattention subscale, Change from Baseline” value [2, 5] was −9.0 and the “ADHD-RS-IV Inattention subscale, Change from Baseline (percent decrease)” value [2, 5] was 38%. The “ADHD-RS-IV Total score, Change from Baseline” value [2, 5] was −17.4, the “ADHD-RS-IV Total score, Change from Baseline (percent decrease)” value [2, 5] was “(41%)” and the “ADHD-RS-IV Total score, Post Treatment Score” value [2, 5] was 25.3. For the same compound, the “ADHD-RS-IV Total score, Change from Baseline (percent decrease)” value ([2]; 10 mg/day oral, 14 days, all patients N = 37, listed as eltoprazine) was 41%, the “ADHD-RS-IV Hyperactivity subscale, Baseline Score” value [2, 6] was 12.8 and the “ADHD-RS-IV Impulsivity subscale, Baseline Score” value [2, 6] was 6.1. For the same compound, the “ADHD-RS-IV Total score, Baseline Score” value [2, 6] was 42.7, the “Selective action on ADHD symptoms (inattention, hyperactivity, impulsivity)” value ([2]; human clinical study in patients with ADHD) was “predominantly on inattention and hyperactivity and to a lesser degree impulsivity; also recorded: greater activity treating hyperactivity and inattention compared to impulsivity” and the “ADHD-RS-IV hyperactivity subscale score, decrease from baseline (improvement)” value [2, 7] was 56%. For the same compound, the “ADHD-RS-IV impulsivity subscale score, decrease from baseline (improvement)” value [2, 7] was 55%, the “ADHD-RS-IV inattention subscale score, decrease from baseline (improvement)” value [2, 7] was 54% and the “ADHD-RS-IV total score, decrease from baseline” value [2, 7] was 55%.
